Values joined by “and” are separate entries in the source; they are usually repeats but may differ in a detail not shown here. Equal values may be shown once. Read-outs that look alike come from different tables or passages of the source.
What was measured:
P. falciparum Dd2-2D4 = experiment: P. falciparum asexual blood stage (ABS) growth assay, SYBR Green, 72 h, wild-type parasites; type: cell-based, Plasmodium falciparum; conditions: Log[inhibitor] (M) -7.408
HsProRS = HsProRS (Homo sapiens, UniProt P07814); experiment: TR-FRET ligand displacement assay with tracer MAT379 (CoraFluor-1-Halo and anti-His6 antibody formats); type: binding; set-up: made in house; host or cells: E. coli SoluBL-21; conditions: for TR-FRET dose-response, normalized signal (SI Fig 11): individual replicates
HsProRS, sequence (P07814 996-1512): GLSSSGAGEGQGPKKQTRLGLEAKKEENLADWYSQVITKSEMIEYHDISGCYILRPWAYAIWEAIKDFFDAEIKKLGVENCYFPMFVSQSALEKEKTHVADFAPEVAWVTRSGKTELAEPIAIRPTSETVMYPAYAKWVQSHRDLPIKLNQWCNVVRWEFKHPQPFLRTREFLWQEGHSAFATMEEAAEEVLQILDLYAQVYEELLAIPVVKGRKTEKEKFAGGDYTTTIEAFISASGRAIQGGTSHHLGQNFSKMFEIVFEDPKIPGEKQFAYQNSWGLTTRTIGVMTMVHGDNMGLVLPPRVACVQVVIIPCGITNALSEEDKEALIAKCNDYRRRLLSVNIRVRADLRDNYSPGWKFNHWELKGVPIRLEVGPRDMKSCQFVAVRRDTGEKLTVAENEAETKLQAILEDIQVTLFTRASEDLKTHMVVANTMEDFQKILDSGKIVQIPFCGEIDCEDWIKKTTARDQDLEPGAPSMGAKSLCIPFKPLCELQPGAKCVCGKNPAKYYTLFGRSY

PfcProRS = molecular target: T1, PfcProRS (Plasmodium falciparum, UniProt Q8I5R7); type: binding; conditions: for dose-response signal (normalized), SI Fig 8: single replicates
T1 construct: made in house; host or cells: E. coli SoluBL-21
T1 sequence (Q8I5R7 249-746): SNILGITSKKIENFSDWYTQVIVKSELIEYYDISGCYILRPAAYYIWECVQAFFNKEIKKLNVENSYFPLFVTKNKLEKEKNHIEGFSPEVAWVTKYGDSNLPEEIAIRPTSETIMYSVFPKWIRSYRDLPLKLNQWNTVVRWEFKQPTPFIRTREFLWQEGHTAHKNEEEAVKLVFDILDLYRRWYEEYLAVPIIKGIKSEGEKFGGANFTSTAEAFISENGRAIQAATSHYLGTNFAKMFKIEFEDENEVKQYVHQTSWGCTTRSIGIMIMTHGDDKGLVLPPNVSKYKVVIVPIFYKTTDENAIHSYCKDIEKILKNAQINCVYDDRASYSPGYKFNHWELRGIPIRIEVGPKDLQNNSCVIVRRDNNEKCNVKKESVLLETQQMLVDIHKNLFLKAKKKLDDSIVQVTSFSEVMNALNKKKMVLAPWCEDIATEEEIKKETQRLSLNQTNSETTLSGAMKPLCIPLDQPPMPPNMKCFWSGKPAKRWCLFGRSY

## O=C(NC1Cc2ccccc2C1)c1nccnc1NC(=O)N1CCNCC1 [compound 14]
P. falciparum Dd2-2D4
  dose-response value per replicate (SI Fig 2g): 106
HsProRS
  IC50: > 10000 nM
HsProRS; HsProRS - best Kd, SI Fig 16a, values on -log scale
  Kd: 347 nM
HsProRS; Log[inhibitor] (M) -5.000
  normalized TR-FRET ligand displacement signal, dose-response replicates (SI Fig 6): 7.56E-01 and 7.38E-01 and 6.65E-01
  TR-FRET dose-response, normalized signal (SI Fig 11): 5.37E-01 and 5.66E-01 and 5.12E-01
HsProRS; Log[inhibitor] (M) -5.301
  normalized TR-FRET ligand displacement signal, dose-response replicates (SI Fig 6): 8.27E-01 and 7.77E-01 and 8.29E-01
  TR-FRET dose-response, normalized signal (SI Fig 11): 7.06E-01 and 7.34E-01 and 7.02E-01
HsProRS; Log[inhibitor] (M) -5.601
  normalized TR-FRET ligand displacement signal, dose-response replicates (SI Fig 6): 9.28E-01 and 8.85E-01 and 8.45E-01
  TR-FRET dose-response, normalized signal (SI Fig 11): 8.30E-01 and 8.51E-01 and 8.70E-01
HsProRS; Log[inhibitor] (M) -5.904
  normalized TR-FRET ligand displacement signal, dose-response replicates (SI Fig 6): 9.66E-01 and 1.02E+00 and 8.66E-01
  TR-FRET dose-response, normalized signal (SI Fig 11): 9.48E-01 and 8.82E-01 and 9.17E-01
HsProRS; Log[inhibitor] (M) -6.208
  normalized TR-FRET ligand displacement signal, dose-response replicates (SI Fig 6): 9.85E-01 and 9.86E-01 and 1.00E+00
  TR-FRET dose-response, normalized signal (SI Fig 11): 9.32E-01 and 8.78E-01 and 9.58E-01
HsProRS; Log[inhibitor] (M) -6.509
  normalized TR-FRET ligand displacement signal, dose-response replicates (SI Fig 6): 1.15E+00 and 1.03E+00 and 9.65E-01
  TR-FRET dose-response, normalized signal (SI Fig 11): 9.64E-01 and 9.63E-01 and 9.66E-01
HsProRS; Log[inhibitor] (M) -6.796
  normalized TR-FRET ligand displacement signal, dose-response replicates (SI Fig 6): 1.11E+00 and 1.13E+00 and 1.12E+00
  TR-FRET dose-response, normalized signal (SI Fig 11): 1.02E+00 and 9.73E-01 and 9.90E-01
HsProRS; Log[inhibitor] (M) -7.108
  normalized TR-FRET ligand displacement signal, dose-response replicates (SI Fig 6): 1.08E+00 and 1.05E+00 and 9.83E-01
  TR-FRET dose-response, normalized signal (SI Fig 11): 9.95E-01 and 1.03E+00 and 9.34E-01
HsProRS; Log[inhibitor] (M) -7.409
  normalized TR-FRET ligand displacement signal, dose-response replicates (SI Fig 6): 9.81E-01 and 8.66E-01 and 9.44E-01
  TR-FRET dose-response, normalized signal (SI Fig 11): 9.68E-01 and 9.66E-01 and 9.87E-01
HsProRS; Log[inhibitor] (M) -7.710
  normalized TR-FRET ligand displacement signal, dose-response replicates (SI Fig 6): 1.08E+00 and 1.01E+00 (2×)
  TR-FRET dose-response, normalized signal (SI Fig 11): 1.03E+00 (2×) and 9.36E-01
HsProRS; Log[inhibitor] (M) -8.000
  normalized TR-FRET ligand displacement signal, dose-response replicates (SI Fig 6): 9.08E-01 and 9.09E-01 and 9.75E-01
  TR-FRET dose-response, normalized signal (SI Fig 11): 1.02E+00 and 1.03E+00 and 9.52E-01
HsProRS; Log[inhibitor] (M) -8.301
  normalized TR-FRET ligand displacement signal, dose-response replicates (SI Fig 6): 9.22E-01 and 9.86E-01 and 9.29E-01
  TR-FRET dose-response, normalized signal (SI Fig 11): 1.02E+00 and 9.93E-01 and 9.56E-01
HsProRS; Log[inhibitor] (M) -8.602
  normalized TR-FRET ligand displacement signal, dose-response replicates (SI Fig 6): 9.82E-01 and 1.05E+00 and 8.99E-01
  TR-FRET dose-response, normalized signal (SI Fig 11): 9.98E-01 and 9.57E-01 and 9.65E-01
HsProRS; Log[inhibitor] (M) -9.000
  normalized TR-FRET ligand displacement signal, dose-response replicates (SI Fig 6): 1.07E+00 and 1.04E+00 and 1.00E+00
  TR-FRET dose-response, normalized signal (SI Fig 11): 1.00E+00 and 9.49E-01 and 9.70E-01
HsProRS; Log[inhibitor] (M) -9.301
  normalized TR-FRET ligand displacement signal, dose-response replicates (SI Fig 6): 9.76E-01 and 9.94E-01 and 1.01E+00
  TR-FRET dose-response, normalized signal (SI Fig 11): 9.76E-01 and 1.00E+00 and 9.87E-01
HsProRS; no added proline/ATP (-), 10 μM
  HsProRS % signal at 10 μM: 53.8%
PfcProRS; Log[inhibitor] (M) -5.000
  dose-response signal (normalized), SI Fig 8: 3.52E-01 and 3.02E-01 and 4.80E-01
PfcProRS; Log[inhibitor] (M) -5.301
  dose-response signal (normalized), SI Fig 8: 6.97E-01 and 5.97E-01 and 7.91E-01
PfcProRS; Log[inhibitor] (M) -5.601
  dose-response signal (normalized), SI Fig 8: 7.61E-01 and 7.19E-01 and 8.51E-01
PfcProRS; Log[inhibitor] (M) -5.904
  dose-response signal (normalized), SI Fig 8: 9.39E-01 and 1.01E+00 and 9.69E-01
PfcProRS; Log[inhibitor] (M) -6.208
  dose-response signal (normalized), SI Fig 8: 9.51E-01 and 9.80E-01 and 1.13E+00
PfcProRS; Log[inhibitor] (M) -6.509
  dose-response signal (normalized), SI Fig 8: 1.06E+00 and 1.12E+00 and 9.92E-01
PfcProRS; Log[inhibitor] (M) -6.796
  dose-response signal (normalized), SI Fig 8: 9.94E-01 and 1.03E+00 and 9.99E-01
PfcProRS; Log[inhibitor] (M) -7.108
  dose-response signal (normalized), SI Fig 8: 1.00E+00 and 1.01E+00 and 1.05E+00
PfcProRS; Log[inhibitor] (M) -7.409
  dose-response signal (normalized), SI Fig 8: 1.05E+00 and 9.56E-01 and 1.00E+00
PfcProRS; Log[inhibitor] (M) -7.710
  dose-response signal (normalized), SI Fig 8: 1.05E+00 and 1.12E+00 and 1.08E+00
PfcProRS; Log[inhibitor] (M) -8.000
  dose-response signal (normalized), SI Fig 8: 9.77E-01 and 1.04E+00 (2×)
PfcProRS; Log[inhibitor] (M) -8.301
  dose-response signal (normalized), SI Fig 8: 1.09E+00 and 1.08E+00 and 1.13E+00
PfcProRS; Log[inhibitor] (M) -8.602
  dose-response signal (normalized), SI Fig 8: 9.19E-01 and 1.01E+00 and 1.04E+00
PfcProRS; Log[inhibitor] (M) -9.000
  dose-response signal (normalized), SI Fig 8: 9.80E-01 and 1.02E+00 and 1.08E+00
PfcProRS; Log[inhibitor] (M) -9.301
  dose-response signal (normalized), SI Fig 8: 1.02E+00 and 1.01E+00 and 8.73E-01
PfcProRS; SI Fig 16a, values on -log scale
  PfcProRS -- best Kd: 5.788
